These results are taken from patent publication US9622990B2, “Method for inhibiting cancer cell growth” (priority 2013, dated 2017).

Converted amounts (≈) assume the structure as drawn. Where only a bound is given, the exact number is not on record here.

Holding throughout (format): cell-based
The test system of test [1] is CT26 cell line (colon cancer). The test can be described thus: MTT cell viability assay, CT26. As to conditions: Mus musculus, 48 hours, read-out: half maximal inhibitory concentration (IC50), CT26. The protocol:
(§1) Cell proliferation of A549 cell line (lung cancer), CT26 cell line (colon cancer), DU145 cell line (prostate cancer), HepG2 cell line (liver cancer), MDCK cell line (kidney from canine), PC3 cell line (prostate cancer), MDA-MB-231 cell line (breast cancer) and MCF-7 cell line (breast cancer) was assessed by MTT cell viability assay.
(§2) Above cell lines were cultured in determined medium for 24 hours. Proliferative cells were washed with PBS solution, treated with trypsin-EDTA (1×), centrifuged at 1,200 rpm for 5 min, precipitated the cells and discarded supernatant. The cells were resuspended with 10 ml of fresh medium, and then loaded to 96-well plate. While the assay initiated, 0.01˜200 μg/ml of Antrodia camphorata extract was added in each well, and the plate was incubated for 48 hours, at 37° C., 5% CO2. Each wall was added with 2.5 mg/ml MTT reagent in the dark. After 4 hours of reaction, 100 μl lysis buffer were added to each wall to terminate the reaction. […] The experiment data was represented by means±SD. All data was statistically analyzed by paired-t test, and a P-value less than 0.05 was considered significant.
For orientation: Formazan colour is commonly taken as a measure of viable cells.

The subject of test [2] is MDA-MB-231 cell line (breast cancer). Put plainly: MTT cell viability assay, MDA-MB-231. As to conditions: Homo sapiens; MDA-MB-231, MTT, 48 hours; read-out: half maximal inhibitory concentration (IC50), MDA-MB-231. On the procedure: as §1, §2
Test [3] relates to MDCK cell line (kidney from canine). The test can be described thus: MTT cell viability assay, MDCK. As to conditions: Canis lupus familiaris, 48 hours, read-out: half maximal inhibitory concentration (IC50), MDCK. The protocol: as §1, §2
Test [4] relates to MCF-7 cell line (breast cancer). Put plainly: MTT cell viability assay, MCF-7. As to conditions: Homo sapiens, MCF7; MCF-7, MTT, 48 hours; read-out: half maximal inhibitory concentration (IC50), MCF-7. On the procedure: as §1, §2
Test [5] relates to A549 cell line (lung cancer). Put plainly: MTT cell viability assay, A549. The note with it: Homo sapiens, 48 hours, read-out: half maximal inhibitory concentration (IC50), A549. The protocol: as §1, §2
For test [6], the system named is DU145 cell line (prostate cancer). Put plainly: MTT cell viability assay, DU145. As to conditions: Homo sapiens; DU-145, MTT, 48 hours; read-out: half maximal inhibitory concentration (IC50), DU-145. The protocol:
as §1, §2

Test [7] has as its system PC3 cell line (prostate cancer). The test can be described thus: MTT cell viability assay, PC3. As to conditions: Homo sapiens, PC-3, 48 hours, read-out: half maximal inhibitory concentration (IC50), PC3. On the procedure: as §1, §2
Test [8] deals with HepG2 cell line (liver cancer). The test can be described thus: MTT cell viability assay, HepG2. The note with it: Homo sapiens, 48 hours, read-out: half maximal inhibitory concentration (IC50), HepG2. The protocol: as §1, §2
The test system of test [9] is various tumor cells. Put plainly: MTT cell viability assay, statements over all cell lines. The note with it: for anti cancer activity, in words: summary of table 9. On the procedure:
as §1, §2
The symbols used in tables respectively represent: 0˜25% cell viability: +/−; 25˜50% cell viability: +; 50˜75% cell viability: ++, 75˜100% cell viability: +++, >100% cell viability: ++++. […] In this experiment, when the drug concentration was diluted to […], DMSO concentration was 0.5%.
Accordingly, above extracts can be used for treating cancers, such as lung cancer, colon cancer, prostate cancer, liver cancer and breast cancer, and the effective compounds contained in those extracts also can be purified.
The half maximal inhibitory concentration (IC50) is a measure of the effectiveness of a compound in inhibiting biological or biochemical function. This quantitative measure indicates how much of a particular drug or other substance (inhibitor) is needed to inhibit a given biological process (e.g. cell apoptosis-inducing activity of a compound) by half. […]

Take `COC1=C(OC)[C@H](OC(C)=O)[C@H](C/C=C(\C)CC/C=C(\C)CC(O)C=C(C)C)[C@@H](C)C1=O` (stereo partly shown) [Antrocamol LT2, 4-acetoxy-5-[9-hydroxy-3,7,11-trimethyldodeca-2,6,10-trienyl]-2,3-dimethoxy-6-methyl-cyclohex-2-enone]: the IC50 in test [1] is 0.8 ± 0.03 µg/mL (≈ 1.78 µM); in [2] it was 1.03 ± 0.05 µg/mL (≈ 2.3 µM); in test [3] it was more than 10 µg/mL; in test [4] it was 0.95 ± 0.11 µg/mL (≈ 2.12 µM); in test [5] it was 1.06 ± 0.22 µg/mL (≈ 2.36 µM); in test [6], 0.91 ± 0.08 µg/mL (≈ 2.03 µM). The IC50 in test [7] was 0.69 ± 0.06 µg/mL (≈ 1.54 µM); in [8] it was 0.59 ± 0.02 µg/mL (≈ 1.32 µM). Moreover, in test [9], the “anti cancer activity, in words” value is “predominant anti cancer activity”.

`C[S+](C)[O-]` [DMSO]: the “IC50 value of the solvent (50% cell death)” value in test [9] (DMSO content of the diluted drug, cell line not stated) was 2.34%.

`COC1=C(OC)[C@H](O)[C@H](C/C=C(\C)CC/C=C(\C)CC(O)C=C(C)C)[C@@H](C)C1=O` (stereo partly shown) [Antrocamol LT1, 4-hydroxy-5-[9-hydroxy-3,7,11-trimethyldodeca-2,6,10-trienyl]-2,3-dimethoxy-6-methyl-cyclohex-2-enone]: the IC50 in [1] is 0.07 ± 0.006 µg/mL (≈ 0.172 µM); in test [2] it was 0.98 ± 0.05 µg/mL (≈ 2.41 µM); in test [3], more than 10 µg/mL; in test [4], 0.99 ± 0.08 µg/mL (≈ 2.44 µM); in test [5], 0.093 ± 0.003 µg/mL (≈ 0.229 µM); in test [6], 0.057 ± 0.009 µg/mL (≈ 0.14 µM). Besides, the IC50 is 0.057 ± 0.002 µg/mL (≈ 0.14 µM) in test [7] and 0.014 ± 0.001 µg/mL (≈ 0.0344 µM) in [8]. For the same compound, the “anti cancer activity, in words” value in [9] is “predominant anti cancer activity”.
